Earlier results, collected in US11311620B2, “Neoadjuvant therapy for bladder cancer” (PHOTOCURE ASA, priority 2016, dated 2022).

Experiments:
[1] = tested on: bladder cancer; details: neoadjuvant cisplatin-containing chemotherapy
[2] = tested on: MIBC; details: patients who had cystectomy; HAL-guided TUR prior to cystectomy; 268 consecutive patients, retrospective
[3] = tested on: NMIBC; details: patients with NMIBC

Compound	absolute improvement in survival at 5 years [1]	3-year overall survival (OS) [2]	3-year recurrence-free survival (RFS) [2]	rate of residual tumor after TUR [3]	recurrence free survival (RFS) rates compared to white light TUR alone [3]	detection of papillary tumors and flat carcinoma-in-situ (CIS) lesions ([3]; compared to white light alone)
N.N.[Cl][Pt][Cl] [cisplatin]	5%	–	–	–	–	–
CCCCCCOC(=O)CCC(=O)CN [HAL, n-hexyl 5-amino-4-oxo-pentanoate]	–	65.0%	69.8%	reduced the rate of residual tumor	superior recurrence free survival (RFS) rates	improved detection
